Test results taken from patent publication US10239842B2, “Hydrosoluble compounds derived from benzimidazole used in treating fasciolosis” (UNIVERSIDAD NACIONAL AUTONOMA DE MEXICO, priority 2014, dated 2019).
Where two headings read alike, the source gives them in different places.

Legend:
[1] = tested on: Fasciola hepatica; conditions: cited from earlier work; for Efficacy against Fasciola hepatica, first fasciola age span printed for the drug / Efficacy against Fasciola hepatica, second fasciola age span for the drug: sheep, recommended dose rates, span not recoverable from the grid; for Efficacy against Fasciola hepatica, first fasciola age span printed for the drug: first (younger) age span in weeks; for Efficacy against Fasciola hepatica, second fasciola age span for the drug: second (older) age span in weeks
[2] = Stability studies in aqueous solution by UV-HPLC; format: physicochemical; conditions: >95% by UV-HPLC determined at room temperature
Protocol: Solutions were kept at room temperature (25° C.) for 26 hours (24 hour for TCBZ), and 5 mL of the samples were later diluted in 10 mL of water and analyzed by UV-HPLC.

[3] = tested on: mature and juvenile fasciola; conditions: dose of 15 mg/Kg; previous studies; cited from earlier work
[4] = Studies of aqueous solubility (method reported by Yalkowski); format: physicochemical; conditions: determined at 25° C.
Protocol: Sample was stirred at room temperature for 48 hours until reaching equilibrium between the two phases. The tube was then centrifuged at 4500 rpm for minutes at room temperature. […] Its concentration was then determined in a spectrophotometer at 350 nm.

[5] = tested on: Fasciola hepatica; experiment: In-vitro evaluation of fasciolicide efficacy on artificially excysted fasciola; format: cell-based
Protocol: In order to evaluate the anti-fasciola effect of compounds 5 and 6 as mixture of regioisomers, artificially excysted fasciola were used (approximately six hours after excystment), according to the disclosure by Ibarra and Jenkins, (1984). Briefly, recently excysted fasciola are suspended in 90 ml of Roswell Park Memorial Institute (RPMI)-1640® culture media plus 90 ml of bovine serum and 1.5 ml of antibiotics (Penicillin and Streptomycin) at a density of 100 individuals/ml.
5 mg of experimental compound was used and placed in a universal bottle (30 ml capacity), to which 0.1 ml of methanol was added to dissolve the compound. From this point, required dilutions are carried out with distilled water to prepare concentrations of 50 and 10 mg/l.
24-well NUNC® culture dishes were used and 1.6 ml of culture medium (RPMI/bovine serum), 0.2 ml of the compound concentration to be tested and 0.2 ml of RPMI containing 10 fasciola per well are placed into each well. Control wells which contain fasciola without compound are used per each dish, further including a control group with a reference drug (Triclabendazole-Fasinex®-Novartis). Each concentration is carried out three times. Each sample remains under incubation at 37° C. during 4 days under a 5% CO2 atmosphere.
Fasciola under study are examined at 24, 48 and 72 hours post-exposure to compound through an inverted microscope at 40×. Extract activity is measured by comparing survival of treated fasciola with control group fasciola. All procedures are carried out under aseptic conditions in a laminar flow hood.
Efficacy is measured by using the following formula (Abbott, 2004): % Efficacy=[Fasciola in control group−Fasciola in treated group]/[[…]]
The extract is considered to have fasciolicide activity when showing an in vitro efficacy higher than 80%. (Ibarra & Jenkins, 1984; Elango & Rahuman, 2011; Ibarra et al, 2013).

[6] = TCBZ solubility reported in literature; cited from earlier work
[7] = cited from earlier work
[8] = 24 h, read-out: EFFICACY (%) 1st Test, mortality percentage
[9] = 24 h, read-out: EFFICACY (%) 2nd Test, mortality percentage
[10] = 24 h, read-out: EFFICACY (%) 3rd Test, mortality percentage
[11] = 24 h, read-out: EFFICACY (%) Average, mortality percentage
[12] = 48 h, read-out: EFFICACY (%) 1st Test, mortality percentage
[13] = 48 h, read-out: EFFICACY (%) 2nd Test, mortality percentage
[14] = 48 h, read-out: EFFICACY (%) 3rd Test, mortality percentage
[15] = 48 h, read-out: EFFICACY (%) Average, mortality percentage
[16] = 72 h, read-out: EFFICACY (%) 1st Test, mortality percentage
[17] = 72 h, read-out: EFFICACY (%) 2nd Test, mortality percentage
[18] = 72 h, read-out: EFFICACY (%) 3rd Test, mortality percentage
[19] = 72 h, read-out: EFFICACY (%) Average, mortality percentage

## CCCSc1ccc2nc(NC(=O)OC)[nH]c2c1 [Albendazole]
[1]; fasciola age weeks 10-11
  efficacy over Fasciola hepatica: 50-70%
[1]; fasciola age weeks 12-14
  efficacy over Fasciola hepatica: 80-90%

## CSc1nc2cc(Oc3cccc4ccccc34)c(Cl)cc2[nH]1 [Alpha compound, 5-Chloro-2-(methylthio)-6-(1-naphthyloxy)-1H-benzimidazole]
[2]
  Aqueous solubility (h) pH 7 [chemical stability]: >26 h
[3]
  efficacy against mature and juvenile fasciola: 86.9%
[4]
  Aqueous solubility pH 7: 2.6×10^−4 mg/mL

## Nc1cc(C(Cl)=C(Cl)Cl)c(S(N)(=O)=O)cc1S(N)(=O)=O [Closuron]
[1]
  Efficacy against Fasciola hepatica, first fasciola age span printed for the drug: 90-99%

## CC(=O)Nc1ccc(OCCOCCOc2ccc(NC(C)=O)cc2)cc1 [Diamphenetide]
[1]; 7-week adult fasciola
  efficacy in adult fasciola: not being effective
[1]
  Efficacy against Fasciola hepatica, first fasciola age span printed for the drug: 91-100%
  Efficacy against Fasciola hepatica, second fasciola age span for the drug: 50-80%

## O=C(Nc1ccc(Oc2ccc(Cl)cc2)c(Cl)c1)c1cc(I)cc(I)c1O [Rafoxanide]
[1]
  Efficacy against Fasciola hepatica, second fasciola age span for the drug: 91-99%

## CSc1nc2cc(Oc3cccc(Cl)c3Cl)c(Cl)cc2[nH]1 [Triclabendazole]
[5]; [8]
  mortality at 10 µg/mL: 100%
  mortality at 50 µg/mL: 100%
[5]; [9]
  mortality at 10 µg/mL: 100%
  mortality at 50 µg/mL: 100%
[5]; [10]
  mortality at 10 µg/mL: 100%
  mortality at 50 µg/mL: 100%
[5]; [11]
  mortality at 10 µg/mL: 100%
  mortality at 50 µg/mL: 100%
[5]; [12]
  mortality at 10 µg/mL: 100%
  mortality at 50 µg/mL: 100%
[5]; [13]
  mortality at 10 µg/mL: 100%
  mortality at 50 µg/mL: 100%
[5]; [14]
  mortality at 10 µg/mL: 100%
  mortality at 50 µg/mL: 100%
[5]; [15]
  mortality at 10 µg/mL: 100%
  mortality at 50 µg/mL: 100%
[5]; [16]
  mortality at 10 µg/mL: 100%
  mortality at 50 µg/mL: 100%
[5]; [17]
  mortality at 10 µg/mL: 100%
  mortality at 50 µg/mL: 100%
[5]; [18]
  mortality at 10 µg/mL: 100%
  mortality at 50 µg/mL: 100%
[5]; [19]
  mortality at 10 µg/mL: 100%
  mortality at 50 µg/mL: 100%
[6]
  Aqueous solubility pH 7: 2.0 × 10^−4 mg/mL
[1]
  Efficacy against Fasciola hepatica, second fasciola age span for the drug: 91-99%
[2]
  Aqueous solubility (h) pH 7 [chemical stability]: >24 h
[7]; orally administered
  absorbed fraction of administered dose: 5%
[7]; share of dose
  plasma levels of triclabendazole as sulfoxide: 5%
  removed in feces: 92%
  removed in milk: 1%
  removed in urine: 2%
